Measured values taken from the NIST ThermoML archive (doi:10.1021/je700546r).
Values joined by “and” are separate entries in the source; they are usually repeats but may differ in a detail not shown here. Equal entries are not always repeated.

Experiment: molar heat capacity at saturation pressure
Conditions: Small (less than 1 g) adiabatic calorimetry

ON=C1CCCCC1 [cyclohexanone oxime]
Conditions	molar heat capacity
224.01 K, Crystal 3	136.62 J/K/mol
224.62 K, Crystal 3	137.24 J/K/mol
224.76 K, Crystal 3	137.52 J/K/mol
225.92 K, Crystal 3	138.42 J/K/mol
226.48 K, Crystal 3	138.92 J/K/mol
226.5 K, Crystal 3	139.12 J/K/mol
227.85 K, Crystal 3	140.09 J/K/mol
228.24 K, Crystal 3	140.6 J/K/mol
228.33 K, Crystal 3	140.45 J/K/mol
229.78 K, Crystal 3	141.6 J/K/mol
229.98 K, Crystal 3	141.91 J/K/mol
230.18 K, Crystal 3	141.86 J/K/mol
231.71 K, Crystal 3	143.03 J/K/mol and 143.15 J/K/mol
232.03 K, Crystal 3	143.15 J/K/mol
233.43 K, Crystal 3	144.26 J/K/mol
233.64 K, Crystal 3	144.32 J/K/mol
233.87 K, Crystal 3	144.33 J/K/mol
235.14 K, Crystal 3	145.41 J/K/mol
235.57 K, Crystal 3	145.51 J/K/mol
235.71 K, Crystal 3	145.65 J/K/mol
236.85 K, Crystal 3	146.62 J/K/mol
237.5 K, Crystal 3	146.68 J/K/mol
237.54 K, Crystal 3	146.94 J/K/mol
238.56 K, Crystal 3	147.84 J/K/mol
239.36 K, Crystal 3	148.9 J/K/mol
239.43 K, Crystal 3	148.81 J/K/mol
239.79 K, Crystal 3	150.04 J/K/mol
241.18 K, Crystal 3	153.75 J/K/mol
241.36 K, Crystal 3	153.6 J/K/mol
241.48 K, Crystal 3	154.07 J/K/mol
242.99 K, Crystal 2	148.41 J/K/mol
243.3 K, Crystal 2	148.43 J/K/mol
243.42 K, Crystal 2	148.52 J/K/mol
244.82 K, Crystal 2	149.34 J/K/mol
245.25 K, Crystal 2	149.53 J/K/mol
245.37 K, Crystal 2	149.83 J/K/mol
246.66 K, Crystal 2	150.69 J/K/mol
247.07 K, Crystal 2	151.16 J/K/mol
247.18 K, Crystal 2	150.98 J/K/mol
248.48 K, Crystal 2	152.19 J/K/mol
248.78 K, Crystal 2	152.63 J/K/mol
250.29 K, Crystal 2	153.82 J/K/mol
250.48 K, Crystal 2	154.01 J/K/mol
252.11 K, Crystal 2	155.49 J/K/mol
252.36 K, Crystal 2	155.81 J/K/mol
253.91 K, Crystal 2	157.22 J/K/mol
254.12 K, Crystal 2	157.42 J/K/mol
255.71 K, Crystal 2	159 J/K/mol
255.8 K, Crystal 2	159.11 J/K/mol
257.47 K, Crystal 2	160.79 J/K/mol
257.5 K, Crystal 2	160.82 J/K/mol
259.14 K, Crystal 2	162.49 J/K/mol
259.28 K, Crystal 2	162.64 J/K/mol
260.8 K, Crystal 2	164.29 J/K/mol
261.05 K, Crystal 2	164.53 J/K/mol
262.46 K, Crystal 2	166.09 J/K/mol
262.82 K, Crystal 2	166.41 J/K/mol
264.11 K, Crystal 2	167.84 J/K/mol
264.58 K, Crystal 2	168.33 J/K/mol
265.75 K, Crystal 2	169.58 J/K/mol
266.34 K, Crystal 2	170.21 J/K/mol
267.39 K, Crystal 2	171.43 J/K/mol
268.08 K, Crystal 2	172.13 J/K/mol
269.02 K, Crystal 2	173.27 J/K/mol
269.82 K, Crystal 2	174.08 J/K/mol
270.64 K, Crystal 2	175.04 J/K/mol
271.56 K, Crystal 2	175.95 J/K/mol
272.26 K, Crystal 2	176.79 J/K/mol
273.28 K, Crystal 2	177.73 J/K/mol
273.87 K, Crystal 2	178.52 J/K/mol
275.02 K, Crystal 2	179.53 J/K/mol
275.47 K, Crystal 2	180.26 J/K/mol
276.74 K, Crystal 2	181.37 J/K/mol
277.08 K, Crystal 2	181.92 J/K/mol
278.45 K, Crystal 2	183.01 J/K/mol
278.67 K, Crystal 2	183.43 J/K/mol
280.15 K, Crystal 2	184.62 J/K/mol
280.26 K, Crystal 2	185.03 J/K/mol
281.85 K, Crystal 2	186.12 J/K/mol and 186.38 J/K/mol
283.43 K, Crystal 2	187.69 J/K/mol
283.54 K, Crystal 2	187.5 J/K/mol
285.01 K, Crystal 2	188.93 J/K/mol
285.24 K, Crystal 2	188.79 J/K/mol
286.58 K, Crystal 2	189.97 J/K/mol
286.93 K, Crystal 2	189.9 J/K/mol
288.15 K, Crystal 2	191 J/K/mol
288.61 K, Crystal 2	190.97 J/K/mol
289.72 K, Crystal 2	191.92 J/K/mol
290.29 K, Crystal 2	191.83 J/K/mol
291.28 K, Crystal 2	192.69 J/K/mol
291.97 K, Crystal 2	192.78 J/K/mol
292.14 K, Crystal 2	192.79 J/K/mol
292.85 K, Crystal 2	193.59 J/K/mol
293.65 K, Crystal 2	193.64 J/K/mol
293.7 K, Crystal 2	193.66 J/K/mol
294.41 K, Crystal 2	194.19 J/K/mol
295.26 K, Crystal 2	194.41 J/K/mol
295.32 K, Crystal 2	194.51 J/K/mol
295.97 K, Crystal 2	194.99 J/K/mol
296.81 K, Crystal 2	195.24 J/K/mol
297 K, Crystal 2	195.34 J/K/mol
297.53 K, Crystal 2	195.76 J/K/mol
298.36 K, Crystal 2	196.04 J/K/mol
298.66 K, Crystal 2	196.34 J/K/mol
299.09 K, Crystal 2	196.66 J/K/mol
299.91 K, Crystal 2	197.34 J/K/mol
300.33 K, Crystal 2	197.85 J/K/mol
300.64 K, Crystal 2	198.3 J/K/mol
301.45 K, Crystal 2	198.75 J/K/mol
301.99 K, Crystal 1	196.75 J/K/mol
302.19 K, Crystal 1	195.88 J/K/mol
